The record followed here is US10501438B2, “Aryl-substituted dihydroquinolinones, their preparation and their use as pharmaceuticals” (NEOMED Institute, priority 2015, dated 2019).

The term IC50 denotes the concentration needed to halve the response being measured. The low end stands for greater potency, the high end for weaker potency.

For the first experiment, the system named is human C-Myc transcription in MV-4-11 cells. Briefly: Transcription of human C-Myc in human leukemic MV-4-11 cells (QuantiGene 2.0). The class given is cell-based. The settings on record: Homo sapiens, MV4-11, 4 h, inhibition of C-Myc mRNA, 4 hours treatment. How it is done:
b) Transcription of Human C-Myc in Human Leukemic MV-4-11 Cells:
The effect of compounds on transcription of human C-Myc gene is monitored in human B-myelomonocytic leukemia cell line MV-4-11 (from American Type Culture Collection (ATCC), Manassas, Va., USA) using QuantiGene 2.0 assay kit (Affymetrix, Santa Clara, Calif., USA).
Typically, 8,000 MV-4-11 cells are plated in sterile 96-well plates (Costar #3598 from Fisher Scientific Canada, Ottawa, Ontario, Canada) in Iscove's medium supplemented with 10% fetal bovine serum, glutamine (2 mM), and penicillin (100 I.U.) and streptomycin (100 μg/mL) (all from Wisent Inc., St. Bruno, Quebec, Canada). Compounds are dissolved in DMSO at 30 mM. A series of 1:3 dilutions are first made in DMSO, and further 1:100 dilutions are made in serum-containing cell culture media. The final concentration of DMSO is 0.1% in cell culture media. After cells are treated with various concentrations of test compound for 4 hours, cells are lysed using Quantigene 2.0 sample processing kit (#QS0100). C-Myc mRNA is detected using a QuantiGene 2.0 assay kit (#QS0009) with gene-specific probe to human C-Myc (#SA-50182) following the manufacturer's recommendations. Luminescene signals are read on Flexstation II microplate reader (Molecular Devices, Sunnyvale, Calif., USA).
Compound `Cc1cc(-c2ccc3c(c2Cc2ccc(F)cc2)CCC(=O)N3)cn(C)c1=O` [Compound 91, 6-(1,5-dimethyl-6-oxo-1,6-dihydropyridin-3-yl)-5-(4-fluorobenzyl)-3,4-dihydroquinolin-2(1H)-one] returned an IC50 of 100 nM.
`Cc1cc(-c2cc3c(cc2/C=C/c2ccccc2)NC(=O)CC3)cn(C)c1=O` [Compound 93, (E)-6-(1,5-dimethyl-6-oxo-1,6-dihydropyridin-3-yl)-7-styryl-3,4-dihydroquinolin-2(1H)-one] yielded an IC50 of 760 nM.
Compound `Cc1cc(-c2ccc3c(c2Cc2ccncc2)CCC(=O)N3)cn(C)c1=O` [Compound 59, 6-(1,5-dimethyl-6-oxo-1,6-dihydropyridin-3-yl)-5-(pyridin-4-ylmethyl)-3,4-dihydroquinolin-2(1H)-one] had an IC50 of 270 nM. This IC50 is about 2.8-fold lower than that of the compound before.
Same read-out and setting: the result for `Cc1cc(-c2cc3c(cc2Cc2ccccc2)CCC(=O)N3)cn(C)c1=O` [Compound 31, 6-benzyl-7-(1,5-dimethyl-6-oxo-1,6-dihydropyridin-3-yl)-3,4-dihydroquinolin-2(1H)-one] reads 290 nM.
`Cc1cc(-c2cc3c(cc2Cc2ccccn2)CCC(=O)N3)cn(C)c1=O` [Compound 32, 7-(1,5-dimethyl-6-oxo-1,6-dihydropyridin-3-yl)-6-(pyridin-2-ylmethyl)-3,4-dihydroquinolin-2(1H)-one]: the IC50 stood at 2230 nM.
`Cc1cc(-c2cc3c(c(CN(C)C4CCCC4)c2)NC(=O)CC3)cn(C)c1=O` [Compound 97, 8-((cyclopentyl(methyl)amino)methyl)-6-(1,5-dimethyl-6-oxo-1,6-dihydropyridin-3-yl)-3,4-dihydroquinolin-2(1H)-one] yielded an IC50 of 790 nM.
Compound `Cc1cc(-c2ccc3c(c2COC2CCC2)CCC(=O)N3)cn(C)c1=O` [Compound 67, 5-(cyclobutoxymethyl)-6-(1,5-dimethyl-6-oxo-1,6-dihydropyridin-3-yl)-3,4-dihydroquinolin-2(1H)-one] yielded a half-maximal inhibitory concentration (IC50) of 2030 nM.
In turn, `Cc1cc(-c2cc3c(cc2Cc2ccc(F)cc2)NC(=O)CC3)cn(C)c1=O` [Compound 90, 6-(1,5-dimethyl-6-oxo-1,6-dihydropyridin-3-yl)-7-(4-fluorobenzyl)-3,4-dihydroquinolin-2(1H)-one] returned a half-inhibitory concentration (IC50) of 240 nM. This IC50 is about 8.5-fold lower than that of the compound before.
The same measure, in the same setting: the same measure for `Cc1cc(-c2cc3c(c(COC4CCCCC4)c2)NC(=O)CC3)cn(C)c1=O` [Compound 27, 8-(cyclohexoxymethyl)-6-(1,5-dimethyl-6-oxo-3-pyridyl)-3,4-dihydro-1H-quinolin-2-one]: 150 nM; for `Cc1cc(-c2ccc3c(c2/C=C/c2ccccc2)CCC(=O)N3)cn(C)c1=O` [Compound 94, (E)-6-(1,5-dimethyl-6-oxo-1,6-dihydropyridin-3-yl)-5-styryl-3,4-dihydroquinolin-2(1H)-one]: 730 nM.
The same measure, in the same setting: the result for `Cc1cc(-c2cc3c(c(OCC4CCOCC4)c2)NC(=O)CC3)cn(C)c1=O` [Compound 72, 6-(1,5-dimethyl-6-oxo-1,6-dihydropyridin-3-yl)-8-((tetrahydro-2H-pyran-4-yl)methoxy)-3,4-dihydroquinolin-2(1H)-one] reads greater than 6140 nM.
Same read-out and setting: the same measure for `Cc1cc(-c2cc3c(c(N(C)Cc4ccccc4)c2)NC(=O)CC3)cn(C)c1=O` [Compound 5, 8-[benzyl(methyl)amino]-6-(1,5-dimethyl-6-oxo-3-pyridyl)-3,4-dihydro-1H-quinolin-2-one]: 250 nM.
Turning to `Cc1cc(-c2cc3c(c(OCc4cccnc4)c2)NC(=O)CC3)cn(C)c1=O` [Compound 25, 6-(1,5-dimethyl-6-oxo-1,6-dihydropyridin-3-yl)-8-(pyridin-3-ylmethoxy)-3,4-dihydroquinolin-2(1H)-one], the IC50 stood at 150 nM.
Same read-out and setting: the result for `Cc1cc(-c2cc3c(c(OCc4ccccn4)c2)NC(=O)CC3)cn(C)c1=O` [Compound 26, 6-(1,5-dimethyl-6-oxo-1,6-dihydropyridin-3-yl)-8-(pyridin-2-ylmethoxy)-3,4-dihydroquinolin-2(1H)-one] reads 280 nM; that for `Cc1cc(-c2cc3c(c(O[C@@H](C)c4ccccn4)c2)NC(=O)CC3)cn(C)c1=O` [Compound 74a, (S)-6-(1,5-dimethyl-6-oxo-1,6-dihydropyridin-3-yl)-8-(1-(pyridin-2-yl)ethoxy)-3,4-dihydroquinolin-2(1H)-one], 120 nM; that for `Cc1cc(-c2cc3c(c(OCc4cnccn4)c2)NC(=O)CC3)cn(C)c1=O` [Compound 52, 6-(1,5-dimethyl-6-oxo-1,6-dihydropyridin-3-yl)-8-(pyrazin-2-ylmethoxy)-3,4-dihydroquinolin-2(1H)-one], 550 nM.
The same measure, in the same setting: the same measure for `Cc1cc(-c2cc3c(c(OCc4ccc(F)cn4)c2)NC(=O)CC3)cn(C)c1=O` [Compound 77, 6-(1,5-dimethyl-6-oxo-1,6-dihydropyridin-3-yl)-8-((5-fluoropyridin-2-yl)methoxy)-3,4-dihydroquinolin-2(1H)-one]: 2280 nM; for `Cc1cc(-c2cc3c(c(COC4CCCOC4)c2)NC(=O)CC3)cn(C)c1=O` (centres unmarked) [Compound 48a, 6-(1,5-dimethyl-6-oxo-1,6-dihydropyridin-3-yl)-8-(((tetrahydro-2H-pyran-3-yl)oxy)methyl)-3,4-dihydroquinolin-2(1H)-one]: 2120 nM; for `Cc1cccnc1COc1cc(-c2cc(C)c(=O)n(C)c2)cc2c1NC(=O)CC2` [Compound 76, 6-(1,5-dimethyl-6-oxo-1,6-dihydropyridin-3-yl)-8-((3-methylpyridin-2-yl)methoxy)-3,4-dihydroquinolin-2(1H)-one]: 560 nM.
The compound `Cc1cc(-c2cc3c(cc2COC2CCCC2)NC(=O)CC3)cn(C)c1=O` [Compound 70, 7-((cyclopentyloxy)methyl)-6-(1,5-dimethyl-6-oxo-1,6-dihydropyridin-3-yl)-3,4-dihydroquinolin-2(1H)-one] registered a 50% inhibitory concentration (IC50) of 7820 nM. Against the preceding compound, the IC50 is about 14-fold higher.
`Cc1cc(-c2cc3c(c(NCc4ccncc4)c2)NC(=O)CC3)cn(C)c1=O` [Compound 28, 6-(1,5-dimethyl-6-oxo-3-pyridyl)-8-(4-pyridylmethylamino)-3,4-dihydro-1H-quinolin-2-one] registered a concentration for half-maximal inhibition (IC50) of 420 nM. Against the preceding compound, the IC50 is about 19-fold lower.
`Cc1cc(-c2cc3c(c(OCC4CCCCC4)c2)NC(=O)CC3)cn(C)c1=O` [Compound 71] returned an IC50 of 540 nM. This IC50 and that of the compound before are within 1.5-fold of each other.
In the case of `Cc1cc(-c2cc3c(c(OCC4CCCOC4)c2)NC(=O)CC3)cn(C)c1=O` (centres unmarked) [Compound 54a, 6-(1,5-dimethyl-6-oxo-1,6-dihydropyridin-3-yl)-8-((tetrahydro-2H-pyran-3-yl)methoxy)-3,4-dihydroquinolin-2(1H)-one], the midpoint of inhibition, the IC50, lay at 550 nM.
Turning to `Cc1cc(-c2cc3c(c(CNC4CCCCC4)c2)NC(=O)CC3)cn(C)c1=O` [Compound 24, 8-[(cyclohexylamino)methyl]-6-(1,5-dimethyl-6-oxo-3-pyridyl)-3,4-dihydro-1H-quinolin-2-one], the midpoint of inhibition, the IC50, lay at 830 nM.
Still for that read-out and setting: the result for `Cc1cc(-c2cc3c(cc2COC2CCC2)NC(=O)CC3)cn(C)c1=O` [Compound 69, 7-(cyclobutoxymethyl)-6-(1,5-dimethyl-6-oxo-1,6-dihydropyridin-3-yl)-3,4-dihydroquinolin-2(1H)-one] reads 1250 nM.
Turning to `Cc1cc(-c2ccc3c(c2Cc2ccccc2)NC(=O)CC3)cn(C)c1=O` [Compound 30, 8-benzyl-7-(1,5-dimethyl-6-oxo-1,6-dihydropyridin-3-yl)-3,4-dihydroquinolin-2(1H)-one], it took 250 nM to reach half-maximal inhibition (IC50).
On the same count and under the same terms, the result for `Cc1cc(-c2cc3c(c(OCc4nccs4)c2)NC(=O)CC3)cn(C)c1=O` [Compound 83, 6-(1,5-dimethyl-6-oxo-1,6-dihydropyridin-3-yl)-8-(thiazol-2-ylmethoxy)-3,4-dihydroquinolin-2(1H)-one] reads 510 nM; that for `Cc1cc(-c2cc3c(c(O[C@H](C)c4ccccn4)c2)NC(=O)CC3)cn(C)c1=O` [Compound 74b, (R)-6-(1,5-dimethyl-6-oxo-1,6-dihydropyridin-3-yl)-8-(1-(pyridin-2-yl)ethoxy)-3,4-dihydroquinolin-2(1H)-one], 410 nM; that for `Cc1cc(-c2cc3c(c(COC4CCOCC4)c2)NC(=O)CC3)cn(C)c1=O` [Compound 47, 6-(1,5-dimethyl-6-oxo-1,6-dihydropyridin-3-yl)-8-(((tetrahydro-2H-pyran-4-yl)oxy)methyl)-3,4-dihydroquinolin-2(1H)-one], 940 nM.

The same experiment, now with this note: inhibition of C-Myc mRNA, 4 hours treatment.
On to `Cc1cc(-c2cc3c(c(NC(C)c4ccccn4)c2)NC(=O)CC3)cn(C)c1=O` (centres unmarked) [Compound 23, 6-(1,5-dimethyl-6-oxo-3-pyridyl)-8-[1-(2-pyridyl)ethylamino]-3,4-dihydro-1H-quinolin-2-one], for which the IC50 came to 240 nM.
On the same count and under the same terms, the result for `Cc1cc(-c2cc3c(c(COC4CCCOC4)c2)NC(=O)CC3)cn(C)c1=O` (centres unmarked) [Compound 48b, 6-(1,5-dimethyl-6-oxo-1,6-dihydropyridin-3-yl)-8-(((tetrahydro-2H-pyran-3-yl)oxy)methyl)-3,4-dihydroquinolin-2(1H)-one] reads 2740 nM.
Still for that read-out and setting: the result for `Cc1cc(-c2cc3c(c(OCC4CCCOC4)c2)NC(=O)CC3)cn(C)c1=O` (centres unmarked) [Compound 54b, 6-(1,5-dimethyl-6-oxo-1,6-dihydropyridin-3-yl)-8-((tetrahydro-2H-pyran-3-yl)methoxy)-3,4-dihydroquinolin-2(1H)-one] reads 800 nM.
